In patent US20080058373A1, “Compositions and Methods for Treating or Preventing Glaucoma or Progression Thereof” (priority 2006, published 2008):
Values joined by “and” are separate entries in the source; they are usually repeats but may differ in a detail not shown here. Identical values can stand only once. “Also recorded” adds a separate entry of the source.

What was measured:
Type in all cases: in vivo
[1] = system: rabbit eye (anterior chamber paracentesis); assay: Clinical evaluation by slit lamp (clinical score), rabbit paracentesis model; parameters: key to Clinical Score −180 min / Clinical Score −5 min / Clinical Score +115 min: 0=normal; 1=discrete dilatation of iris and conjunctival vessels; 2=moderate dilatation of iris and conjunctival vessels; 3=intense iridal hyperemia with flare in the anterior chamber; 4=intense iridal hyperemia with flare in the anterior chamber and presence of fibrinous exudates; settings: for Clinical Score −5 min: 5 min before the first paracentesis; for Clinical Score −5 min / Clinical Score +115 min / Clinical Score −180 min: single eyes; for Clinical Score +115 min: 5 min before the second paracentesis; for Percentage of eyes with clinical score 2 / Percentage of eyes with clinical score 3 / Percentage of eyes with clinical score 0 / Percentage of eyes with clinical score 1: N=8 eyes
protein in aqueous humor = assay: Protein measurement in aqueous humor, rabbit paracentesis model; settings: for Protein levels in aqueous humor, Mean: second paracentesis, group mean; for Protein levels in aqueous humor (raw data): samples collected at the second paracentesis, single eyes
Description: (§1) Each rabbit was placed in a restraint device and tagged with the alphanumeric code. The formulations were instilled (50 μl) into the conjunctival sac of both eyes 180, 120, 90 and 30 min before the first paracentesis; then 15, 30, 90 min after the first paracentesis. To perform the first paracentesis the animals were anaesthetized by intravenous injection of 5 mg/kg Zoletil® (Virbac; 2.5 mg/kg tiletamine HCl and 2.5 mg/kg zolazepam HCl) and one drop of local anesthetic (Novesina®, Novartis) was administered to the eye. Anterior chamber paracentesis was performed with a 26 G needle attached to a tuberculin syringe; the needle was introduced into the anterior chamber through the cornea, taking care not to damage the tissues. Two hours after the first paracentesis, the animals were sacrificed with 0.4 ml Tanax® (Intervet International B.V.) and the second paracentesis was performed. About 100 μl of aqueous humor were removed at the second paracentesis. Aqueous humor was immediately split in four aliquots and stored at −80° C. until analysis. Then both eyes were enucleated and the iris-ciliary body was carefully excised, placed in polypropylene tubes, and stored at −80° C. until analysis.
For protein concentration determination in the aqueous humor we used the Protein Quantification Kit (Fluka; Cat.No. 77371; Lot.No. 1303129). Five microliters of aqueous humor were diluted to 100 μl with water. Twenty microliters of samples and of standards were load into a 96-well plate and recorded in a plate layout. Samples were treated following the assay procedure described in the kit. A microplate reader (GDV, Italy; model DV 990 B/V6) set at 670 nm was used for making the calibration and analyzing the samples.

Myeloperoxidase (MPO) = Myeloperoxidase (MPO) activity in iris-ciliary body, rabbit paracentesis model; settings: for MPO activity in iris-ciliary body, Mean / MPO activity in iris-ciliary body: samples collected after the second paracentesis; for MPO activity in iris-ciliary body, Mean: group mean; for Δ/min (mean of the slope of the line recorded every 15 sec for 5 min): 100 μl supernatant aliquot diluted to 3 ml; for Δ/min (mean of the slope of the line recorded every 15 sec for 5 min) / MPO activity in iris-ciliary body: individual eyes
Description: 3.9 g of NaH2PO4 2H2O were dissolved in a volumetric flask to 500 ml with water. The pH was adjusted to pH=6 with 3N NaOH.
0.5 g of hexa-decyl-trimethyl-ammonium bromide was dissolved in 100 ml phosphate buffer.
The solution was prepared freshly. Ten microliters of H2O2 (30 wt. %) were diluted to 1 ml with water (solution A). 7.5 mg o-dianisidine 2HCl was dissolved in 45 ml of phosphate buffer and 75 μl of solution A were added.
as §1
The activity of MPO was measured as previously described by Williams et al.[5] The iris-ciliary bodies were carefully dried, weighed and immersed in 1 ml of hexa-decyl-trimethyl-ammonium bromide solution. Then, the samples were sonicated for 10 sec on ice by a ultrasound homogenizer (HD 2070, Bandelin electronic), freeze-thawed three times, sonicated for 10 sec and centrifuged at 14,000 g for 10 min to remove cellular debris. An aliquot of the supernatant (40-200 μl) was diluted to 3 ml with the o-dianisidine 2HCl/H2O2 solution. The change in absorbance at 460 nm was continuously monitored for 5 min by a spectrophotometer (UV/Vis Spectrometer Lambda EZ 201; Perkin Elmer). The slope of the line (Δ/min) was determined for each sample and used to calculate the number of units of MPO in the tissue as follows:
Values were expressed as units of MPO/g of tissue.

[2] = system: New Zealand White rabbits; assay: Mortality/morbidity in the rabbit IOP study; settings: for Day of Death (day euthanized or found dead) / Recorded Notes (mortality): individual rabbits; for Mortality (animals found dead or euthanized prior to study completion/number of animals in group): topical right eye 4 × daily, Day 33; for Mortality: rabbits that died or were euthanized between Days 11 and 33: right eye four times daily, Days 1-31
Description: On Days 1-31, animals received daily topical doses of the appropriate test article into the right eye. Animals were dosed four times per day, with doses administered 2 hours apart. Doses were administered using a calibrated 50-μL pipette. The eyelids were held close for 10 seconds immediately following dosing. The time of each dose administration was recorded.
Animals determined to be moribund were euthanized with an intravenous injection of commercial euthanasia solution.

[3] = system: rabbit eye (anterior chamber paracentesis); assay: Rabbit paracentesis model of anterior-segment inflammation (overall conclusion); settings: 0.1%, 0.5% and 1% topical formulations
Source text: Inflammatory processes are multidimensional in origin, and are characterized by complex cellular and molecular events involving numerous components all of which have not been identified. Prostaglandins are among these mediators and play an important role in certain forms of ocular inflammation. Paracentesis of the anterior chamber in the rabbit eye induces inflammatory reaction due to the disruption of the blood-aqueous barrier (“BAB”), which is mediated, at least in part, by prostaglandin E2 [References 1-3 below]. Intraocular or topical administration of PGE2 disrupts the BAB. [Reference 4, below] The treatment schedule adopted in this study was similar to the clinical NSAIDs (Ocufen) treatment schedule used by surgeons for patients before cataract surgery.
Each rabbit was placed in a restraint device and tagged with the alphanumeric code. The formulations were instilled (50 μl) into the conjunctival sac of both eyes 180, 120, 90 and 30 min before the first paracentesis; then 15, 30, 90 min after the first paracentesis. […]
Pupillary diameter, PGE2, protein, PMN, and MPO were expressed as mean±SEM. […] Clinical score was expressed as % of eyes and the statistical analysis was performed using Kruskal-Wallis followed by a Dunn post hoc test. […]

[4] = 1 mg/g (0.05 mg/dose) 4 × daily, Group D
[5] = 10 mg/g (0.5 mg/dose) 4 × daily, Group B
[6] = 0.1% (0.05 mg/dose) 4 × daily, Group A

Cc1ccc2c(NCC(O)(CC(C)(C)c3cc(F)cc4c3OCC4)C(F)(F)F)cccc2n1 (centres unmarked)
Clinical Score −5 min ([1]; 0.1% topical): 0 | Clinical Score +115 min ([1]; 0.1% topical, listed as BOL): 2 and 3 | Percentage of eyes with clinical score 2 ([1]; 0.1% topical, +115 min): 75% | Percentage of eyes with clinical score 3 ([1]; 0.1% topical, +115 min): 25% | Percentage of eyes with clinical score 0 ([1]; 0.1% topical, −5 min): 100% | Percentage of eyes with clinical score 0 ([1]; 0.1% topical, −180 min (basal)): 100% | Clinical Score −180 min ([1]; 0.1% topical, −180 min (basal)): 0 | Clinical Score −5 min ([1]; 0.5% topical): 0 | Clinical Score +115 min ([1]; 0.5% topical, listed as BOL): 2 and 1 | Percentage of eyes with clinical score 1 ([1]; 0.5% topical, +115 min): 37.5% | Percentage of eyes with clinical score 2 ([1]; 0.5% topical, +115 min): 62.5% | Percentage of eyes with clinical score 0 ([1]; 0.5% topical, −5 min): 100% | Percentage of eyes with clinical score 0 ([1]; 0.5% topical, −180 min (basal)): 100% | Clinical Score −180 min ([1]; 0.5% topical, −180 min (basal)): 0 | Clinical Score −5 min ([1]; 1% topical): 0 | Clinical Score +115 min ([1]; 1% topical): 2 | Percentage of eyes with clinical score 2 ([1]; 1% topical, +115 min): 100% | Percentage of eyes with clinical score 0 ([1]; 1% topical, −5 min): 100% | Percentage of eyes with clinical score 0 ([1]; 1% topical, −180 min (basal)): 100% | Clinical Score −180 min ([1]; 1% topical, −180 min (basal)): 0 | Protein levels in aqueous humor, Mean (protein in aqueous humor; 0.1% topical): 33.667 mg/mL | Protein levels in aqueous humor (raw data) (protein in aqueous humor; 0.5% topical, listed as BOL): 33.98 mg/mL and 33.65 mg/mL and 19.99 mg/mL and 27.11 mg/mL and 19.72 mg/mL and 36.35 mg/mL and 27.71 mg/mL and 32.24 mg/mL | Protein levels in aqueous humor, Mean (protein in aqueous humor; 0.5% topical): 28.844 mg/mL | Protein levels in aqueous humor, Mean (protein in aqueous humor; 1% topical): 21.435 mg/mL | MPO activity in iris-ciliary body, Mean (Myeloperoxidase (MPO); 0.1% topical): 0.971 MPO Unit/g | Δ/min (mean of the slope of the line recorded every 15 sec for 5 min) (Myeloperoxidase (MPO); 0.1% treatment, listed as BOL): 0.051 and 0.042 (2×) and 0.045 and 0.050 and 0.031 (2×) and 0.036 | MPO activity in iris-ciliary body (Myeloperoxidase (MPO); 0.1% treatment, listed as BOL): 1.04 Unit/g and 1.00 Unit/g and 1.14 Unit/g and 1.06 Unit/g and 1.22 Unit/g and 0.61 Unit/g and 1.05 Unit/g and 0.65 Unit/g | MPO activity in iris-ciliary body, Mean (Myeloperoxidase (MPO); 0.5% topical): 0.775 MPO Unit/g | Δ/min (mean of the slope of the line recorded every 15 sec for 5 min) (Myeloperoxidase (MPO); 0.5% treatment, listed as BOL): 0.044 and 0.040 and 0.031 and 0.049 and 0.033 and 0.034 and 0.022 and 0.026 | MPO activity in iris-ciliary body (Myeloperoxidase (MPO); 0.5% treatment, listed as BOL): 0.85 Unit/g and 0.93 Unit/g and 0.79 Unit/g and 1.03 Unit/g and 0.75 Unit/g and 0.74 Unit/g and 0.54 Unit/g and 0.58 Unit/g | MPO activity in iris-ciliary body, Mean (Myeloperoxidase (MPO); 1% topical): 0.542 MPO Unit/g | Δ/min (mean of the slope of the line recorded every 15 sec for 5 min) (Myeloperoxidase (MPO); 1% treatment, listed as BOL): 0.024 and 0.033 and 0.017 and 0.018 (2×) and 0.016 and 0.052 and 0.013 | MPO activity in iris-ciliary body (Myeloperoxidase (MPO); 1% treatment, listed as BOL): 0.66 Unit/g and 0.68 Unit/g and 0.49 Unit/g and 0.40 Unit/g and 0.34 Unit/g and 1.02 Unit/g and 0.31 Unit/g and 0.43 Unit/g | Day of Death (day euthanized or found dead) [2, 4]: 29 | Recorded Notes (mortality) [2, 4]: Found dead. | Mortality (animals found dead or euthanized prior to study completion/number of animals in group) ([2]; 1 mg/g, 0.05 mg/dose): 1/10^(6) | Mortality: rabbits that died or were euthanized between Days 11 and 33 ([2]; 5 mg/g suspension ([…])): two of ten | Mortality (animals found dead or euthanized prior to study completion/number of animals in group) ([2]; 5 mg/g, […]): 2/10^(5) | Day of Death (day euthanized or found dead) [2, 5]: 11 | Recorded Notes (mortality) [2, 5]: Found dead. Noted on Day 9 to have significant diarrhea and | Mortality: rabbits that died or were euthanized between Days 11 and 33 ([2]; 10 mg/g suspension (0.5 mg/dose)): one of ten | Mortality (animals found dead or euthanized prior to study completion/number of animals in group) ([2]; 10 mg/g, 0.5 mg/dose): 1/10^(4) | Anti-inflammatory activity in the rabbit paracentesis model (preliminary conclusion) [3]: active in this model; also recorded: as effective an anti-inflammatory drug as some of the commonly accepted prior-art steroids or NSAID

C[C@@H]1C[C@H]2[C@@H]3CCC4=CC(=O)C=C[C@]4(C)[C@@]3(F)[C@@H](O)C[C@]2(C)[C@@]1(O)C(=O)CO [dexamethasone, reference compound]
Clinical Score −5 min ([1]; 0.1% topical, listed as Dex): 0 and 1 | Clinical Score +115 min ([1]; 0.1% topical, listed as Dex): 1 and 3 | Percentage of eyes with clinical score 1 ([1]; 0.1% topical, +115 min): 75% | Percentage of eyes with clinical score 3 ([1]; 0.1% topical, +115 min): 25% | Percentage of eyes with clinical score 0 ([1]; 0.1% topical, −5 min): 75% | Percentage of eyes with clinical score 1 ([1]; 0.1% topical, −5 min): 25% | Percentage of eyes with clinical score 0 ([1]; 0.1% topical, −180 min (basal)): 100% | Clinical Score −180 min ([1]; 0.1% topical, −180 min (basal)): 0 | Protein levels in aqueous humor (raw data) (protein in aqueous humor; 0.1% topical, listed as Dex): 31.31 mg/mL and 31.81 mg/mL and 35.95 mg/mL and 37.15 mg/mL and 32.12 mg/mL and 32.40 mg/mL | Protein levels in aqueous humor, Mean (protein in aqueous humor; 0.1% topical): 33.457 mg/mL | MPO activity in iris-ciliary body, Mean (Myeloperoxidase (MPO); 0.1% topical): 0.618 MPO Unit/g | Δ/min (mean of the slope of the line recorded every 15 sec for 5 min) (Myeloperoxidase (MPO); 0.1% treatment, listed as Dex): 0.029 and 0.031 and 0.064 and 0.023 (2×) and 0.019 and 0.024 and 0.021 | MPO activity in iris-ciliary body (Myeloperoxidase (MPO); 0.1% treatment, listed as Dex): 0.71 Unit/g and 0.60 Unit/g and 1.32 Unit/g and 0.48 Unit/g (2×) and 0.39 Unit/g and 0.45 Unit/g and 0.51 Unit/g | Day of Death (day euthanized or found dead) [2, 6]: 25 (2×) and 27 (2×) and 23 and 13 | Recorded Notes (mortality) [2, 6]: Euthanized due to severe hemorrhagic diarrhea. Noted to be; also recorded: Euthanized. Very sick/poor health; left (untreated) eye; also recorded: Euthanized due to severe profuse hemorrhagic diarrhea; also recorded: Found dead. No rigor mortis present | Mortality (animals found dead or euthanized prior to study completion/number of animals in group) ([2]; 0.1%, 0.05 mg/dose): 6/10^(3)
